Reference: ChEMBL document CHEMBL1201862, “PubChem BioAssay data set” (2004)
Values joined by “and” are separate entries in the source; they are usually repeats but may differ in a detail not shown here. Identical values can stand only once. Active and inactive are the calls of the source.

How the values were obtained:
[1] = target: T1, Heat shock factor protein 1 (Mus musculus, UniProt P38532); test: inhibition of MG132-induced HSE-luciferase signal, confirmation, cell-based, NIH3T3, luminescence, dose retest (AID 2382); assay type: functional;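 further: NIH3T3 fibroblasts with HSF1-driven luciferase reporter stressed by proteasome inhibitor MG132; luminescence from HSF1-driven luciferase expression after 8 hours of MG132 stress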
T1 sequence (P38532 whole entry): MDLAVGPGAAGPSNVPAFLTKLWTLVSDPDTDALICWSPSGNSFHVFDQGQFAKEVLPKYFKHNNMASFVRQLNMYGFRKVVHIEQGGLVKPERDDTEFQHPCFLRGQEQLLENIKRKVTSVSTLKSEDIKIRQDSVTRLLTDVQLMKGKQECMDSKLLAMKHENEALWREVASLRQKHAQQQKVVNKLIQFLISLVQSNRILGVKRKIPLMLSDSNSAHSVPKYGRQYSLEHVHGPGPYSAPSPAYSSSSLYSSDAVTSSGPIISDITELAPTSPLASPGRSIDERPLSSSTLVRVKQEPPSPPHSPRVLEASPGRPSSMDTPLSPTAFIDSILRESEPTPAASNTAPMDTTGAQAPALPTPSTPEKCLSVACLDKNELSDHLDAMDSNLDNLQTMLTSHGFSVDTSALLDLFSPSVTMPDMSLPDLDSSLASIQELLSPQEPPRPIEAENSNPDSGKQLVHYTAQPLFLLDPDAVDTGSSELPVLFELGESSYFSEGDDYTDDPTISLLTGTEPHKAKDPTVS

[2] = target: Cytochrome P450 2C19 (Homo sapiens, UniProt P33261); test: Cytochrome panel assay with activity outcomes. Panel member name: p450-cyp2c19 Compounds with AC50 equal or less than 10 uM are considered active; assay type: functional
Chain of Cytochrome P450 2C19 (P33261 whole entry): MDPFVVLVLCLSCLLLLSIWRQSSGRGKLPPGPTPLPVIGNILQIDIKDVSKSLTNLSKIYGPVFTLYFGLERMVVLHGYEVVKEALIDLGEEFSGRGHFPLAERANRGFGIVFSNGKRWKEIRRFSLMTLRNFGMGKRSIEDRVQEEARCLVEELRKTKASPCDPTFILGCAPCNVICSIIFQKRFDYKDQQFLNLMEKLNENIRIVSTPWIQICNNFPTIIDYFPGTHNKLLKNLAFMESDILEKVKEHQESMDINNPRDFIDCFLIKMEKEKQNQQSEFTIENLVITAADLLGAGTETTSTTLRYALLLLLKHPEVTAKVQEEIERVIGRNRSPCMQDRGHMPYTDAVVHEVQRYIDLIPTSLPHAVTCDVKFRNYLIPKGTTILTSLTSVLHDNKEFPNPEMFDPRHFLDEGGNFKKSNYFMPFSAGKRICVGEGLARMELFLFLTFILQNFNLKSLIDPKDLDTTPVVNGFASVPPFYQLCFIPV

[3] = target: Cytochrome P450 3A4 (Homo sapiens, UniProt P08684);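 further: CYP3A4 tested as one member of a cytochrome P450 panel screen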
Chain of Cytochrome P450 3A4 (P08684 whole entry): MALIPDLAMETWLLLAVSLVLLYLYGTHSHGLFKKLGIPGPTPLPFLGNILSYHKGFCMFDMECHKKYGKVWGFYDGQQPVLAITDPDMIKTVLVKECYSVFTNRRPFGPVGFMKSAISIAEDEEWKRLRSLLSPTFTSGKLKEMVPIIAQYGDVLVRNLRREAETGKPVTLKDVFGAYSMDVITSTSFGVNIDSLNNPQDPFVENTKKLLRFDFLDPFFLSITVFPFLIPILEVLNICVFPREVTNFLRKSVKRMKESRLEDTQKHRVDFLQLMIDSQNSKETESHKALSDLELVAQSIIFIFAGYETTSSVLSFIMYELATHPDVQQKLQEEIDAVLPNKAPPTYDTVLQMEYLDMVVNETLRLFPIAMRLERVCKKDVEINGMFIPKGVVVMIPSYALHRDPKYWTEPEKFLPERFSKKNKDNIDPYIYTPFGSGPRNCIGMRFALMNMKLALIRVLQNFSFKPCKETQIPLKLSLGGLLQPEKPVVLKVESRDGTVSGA

[4] = target: T2, Cytochrome P450 1A2 (Homo sapiens, UniProt P05177);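 further: PubChem cytochrome P450 panel assay, CYP1A2 panel member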
T2 sequence (P05177 whole entry): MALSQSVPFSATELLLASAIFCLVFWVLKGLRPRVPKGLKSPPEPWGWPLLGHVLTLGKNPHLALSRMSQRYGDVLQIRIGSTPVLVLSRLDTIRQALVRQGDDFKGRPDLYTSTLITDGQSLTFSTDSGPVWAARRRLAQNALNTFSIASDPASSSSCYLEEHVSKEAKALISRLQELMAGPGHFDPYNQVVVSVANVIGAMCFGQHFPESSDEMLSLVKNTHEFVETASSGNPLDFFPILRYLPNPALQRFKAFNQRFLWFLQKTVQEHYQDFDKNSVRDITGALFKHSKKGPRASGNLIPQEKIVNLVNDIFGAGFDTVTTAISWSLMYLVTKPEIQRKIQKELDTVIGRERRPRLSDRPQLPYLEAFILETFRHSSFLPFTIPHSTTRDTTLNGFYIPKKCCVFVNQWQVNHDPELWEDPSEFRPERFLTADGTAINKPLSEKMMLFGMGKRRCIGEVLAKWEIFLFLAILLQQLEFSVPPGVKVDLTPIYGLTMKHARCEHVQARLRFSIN

[5] = target: Cytochrome P450 2C9 (Homo sapiens, UniProt P11712)
Chain of Cytochrome P450 2C9 (P11712 whole entry): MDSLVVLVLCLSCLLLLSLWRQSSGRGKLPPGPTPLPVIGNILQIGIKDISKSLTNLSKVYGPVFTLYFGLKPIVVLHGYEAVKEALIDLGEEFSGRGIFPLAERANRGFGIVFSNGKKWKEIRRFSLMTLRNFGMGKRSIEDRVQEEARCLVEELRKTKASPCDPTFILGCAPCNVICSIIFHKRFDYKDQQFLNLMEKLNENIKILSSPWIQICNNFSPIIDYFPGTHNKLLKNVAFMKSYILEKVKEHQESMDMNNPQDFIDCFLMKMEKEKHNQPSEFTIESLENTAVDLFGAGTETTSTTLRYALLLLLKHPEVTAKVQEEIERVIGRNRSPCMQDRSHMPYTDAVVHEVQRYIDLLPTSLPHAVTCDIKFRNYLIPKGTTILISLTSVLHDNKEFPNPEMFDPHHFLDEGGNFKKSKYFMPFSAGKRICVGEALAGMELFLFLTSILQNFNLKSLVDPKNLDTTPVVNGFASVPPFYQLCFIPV

[6] = test system: Streptococcus sp. 'group A'; test: growth inhibition of control SK(-) GAS strain, dose response, counter-screen for streptokinase expression inhibitor project, luminescence, kanamycin, BacTiterGlo, confirmation (AID 1900); assay type: functional, organism-based
[7] = target: T3, Streptokinase A (Streptococcus pyogenes serotype M1, UniProt P10520); test: S. pyogenes streptokinase expression inhibitors, potency, dose response, plasminogen activation absorbance, OD405 (AID 1914); assay type: functional, Streptococcus pyogenes M1 GAS;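 further: secreted streptokinase activity via plasminogen activation per viability signal from cell pellet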
T3 sequence (P10520 whole entry): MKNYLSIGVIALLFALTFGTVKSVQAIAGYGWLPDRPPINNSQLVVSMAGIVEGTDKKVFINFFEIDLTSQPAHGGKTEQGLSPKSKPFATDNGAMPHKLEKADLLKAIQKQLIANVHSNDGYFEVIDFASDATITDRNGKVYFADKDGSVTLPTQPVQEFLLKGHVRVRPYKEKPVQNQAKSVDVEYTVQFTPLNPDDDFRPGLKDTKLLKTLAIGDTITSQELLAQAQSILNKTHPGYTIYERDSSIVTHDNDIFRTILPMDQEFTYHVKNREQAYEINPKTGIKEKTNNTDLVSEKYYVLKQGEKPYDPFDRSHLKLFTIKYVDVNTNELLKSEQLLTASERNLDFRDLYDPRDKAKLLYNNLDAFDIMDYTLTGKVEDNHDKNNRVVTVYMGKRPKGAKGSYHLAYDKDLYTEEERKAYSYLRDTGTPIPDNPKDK

[8] = test system: Streptococcus; test: Group A Streptococcus viability loss, dose response, counter-screen for streptokinase expression inhibitor project, luminescence, BacTiterGlo (AID 1915); assay type: functional, organism-based;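 further: potency for reduction of bacterial viability or growth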
[9] = target: Cytochrome P450 2D6 (Homo sapiens, UniProt P10635);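 further: CYP2D6 member of a cytochrome P450 panel assay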
Chain of Cytochrome P450 2D6 (P10635 whole entry): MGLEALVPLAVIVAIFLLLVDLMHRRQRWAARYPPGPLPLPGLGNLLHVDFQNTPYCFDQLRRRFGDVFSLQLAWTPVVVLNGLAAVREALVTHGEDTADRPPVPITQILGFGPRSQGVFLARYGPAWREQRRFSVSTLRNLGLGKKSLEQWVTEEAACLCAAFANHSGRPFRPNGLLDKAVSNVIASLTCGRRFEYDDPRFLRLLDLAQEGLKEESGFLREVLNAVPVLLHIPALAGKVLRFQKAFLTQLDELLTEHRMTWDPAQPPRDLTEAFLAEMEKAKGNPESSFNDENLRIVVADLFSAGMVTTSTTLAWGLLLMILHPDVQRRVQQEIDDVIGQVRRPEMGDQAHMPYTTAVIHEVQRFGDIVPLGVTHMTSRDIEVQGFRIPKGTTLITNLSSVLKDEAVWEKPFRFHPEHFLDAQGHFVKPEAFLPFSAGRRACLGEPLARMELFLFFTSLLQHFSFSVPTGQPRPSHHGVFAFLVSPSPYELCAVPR

[10] = Luminescence Cell-Based Dose Response HTS to Identify Activators of Luciferase Translation or Activity in H4 […] Cells. [Related pubchem assays: 1829 (Project Summary), 1814 (Primary HTS)]; assay type: functional
[11] = test system: H4; test: Luminescence Cell-Based Dose Response HTS to Identify Activators of 5'UTR Stem-Loop Driven Prion Protein mRNA Translation in H4 Neuroglioblastoma Cells. [Related pubchem assays: 1829 (Project Summary), 1814 (Primary HTS)]; assay type: functional; conditions: Homo sapiens

COc1cccc(-c2cccc(NC(=O)C3CCN(Cc4ccon4)CC3)c2)c1
EC50 [1]: > 195 µM (not active)

Sc1nnc(-c2ccncc2)n1Cc1ccco1
EC50 [1]: > 195 µM (not active)

CC(=O)c1cc(C)ccc1OC(=O)CCN1C(=O)C2C3c4ccccc4C(c4ccccc43)C2C1=O (stereo not drawn)
AC50 ([2]; read-out: AC50): 10 µM (inconclusive) | AC50 [3]: 31.6 µM (inconclusive)

Cc1ccc(C(=O)N(CN2CCCC2=O)c2ccccc2)cc1C
AC50 [4]: 5.01 µM (inconclusive) | AC50 [5]: 0.00562 µM (inconclusive)

O=C(Nc1nc(-c2ccccn2)cs1)C12CC3CC(CC(O)(C3)C1)C2
EC50 [6]: > 150 µM (not active) | EC50 [7]: > 150 µM (not active) | EC50 [8]: > 150 µM (not active)

CSc1cccc(NC(=S)N2CCC(N(C)C3CCCC3)CC2)c1
EC50 [1]: > 195 µM (not active)

CCOC(=O)C(=NC(C)(C)C)NNc1cc(Cl)ccc1Cl
EC50 [6]: 4.52 µM (active) | EC50 [7]: 7.59 µM (active) | EC50 [8]: 21.1 µM (active)

FC(F)(F)c1cc(-c2ccccc2)nc(N2CCCCCC2)n1
EC50 [6]: 4.27 µM (active) | EC50 [7]: 5.14 µM (active) | EC50 [8]: 14.3 µM (active)

COc1cc(C(=O)NC(=S)Nc2cccc(-c3cc4ccccc4oc3=O)c2)cc(OC)c1OC
AC50 [4]: 2.82 µM (inconclusive)

CC(C)c1c(C(=O)N/N=C/c2cccc(OCc3ccc(F)cc3)c2)nnn1-c1nonc1N
EC50 [6]: 4.9 µM (active) | EC50 [7]: 2.1 µM (active) | EC50 [8]: 23.1 µM (active)

COc1ccc(C(=O)N2CCCC(Nc3ccc(C)c(C)c3)C2)cc1F (stereo not drawn)
EC50 [6]: > 150 µM (not active) | EC50 [7]: > 150 µM (not active) | EC50 [8]: > 150 µM (not active)

CC1=NN=C(c2ccc(N)cc2)c2cc3c(cc2C1)OCO3 [GYKI-52466]
AC50 [9]: 25.1 µM (inconclusive) and 31.6 µM (inconclusive) | AC50 [4]: 31.6 µM (inconclusive)

N[C@@H](C(=O)O)c1ccc(P(=O)(O)O)cc1
AC50 [4]: 20 µM (inconclusive) | AC50 [5]: 31.6 µM (inconclusive)

Cc1ccc(/C=C2/Sc3ccc(C(=O)N4CCN(C)CC4)cc3NC2=O)cc1
EC50 [6]: 7.17 µM (active) | EC50 [7]: > 150 µM (not active) | EC50 [8]: 14.2 µM (active)

COc1ccccc1N1CCN(C(c2ccc(N(C)C)cc2)c2nnnn2CCc2ccccc2)CC1 (stereo not drawn)
EC50 [1]: > 195 µM (not active)

CCCOc1ccc(N2C(=O)CC(SC(=N)N/N=C(\C)c3cccs3)C2=O)cc1 (stereo not drawn)
AC50 [9]: 15.8 µM (inconclusive) | AC50 [4]: 15.8 µM (inconclusive)

Cc1ccc(C2=NN(S(C)(=O)=O)C(c3cccs3)C2)cc1 (stereo not drawn)
AC50 [9]: 14.1 µM (inconclusive) | AC50 [4]: 31.6 µM (inconclusive)

Cc1ncc(CSC(=N)N)n1Cc1ccccc1
AC50 ([2]; read-out: AC50): 7.94 µM (inconclusive)

OC1/C(=C/c2ccccc2C(F)(F)F)N2CCC1CC2 (stereo not drawn)
EC50 [1]: > 195 µM (not active)

O=C(O)[C@H]([C@H]1NCCS1)N1C(=O)c2ccccc2C1=O
AC50 [4]: 5.01 µM (inconclusive)

CCOC(=O)Nc1nc(-c2ccccc2)c(C)s1
AC50 ([2]; read-out: AC50): 3.98 µM (inconclusive) | AC50 [5]: 7.94 µM (inconclusive)

COc1ccccc1CNc1ccnc(-c2ccc(C(=O)N(C)C)cc2)n1
AC50 ([2]; read-out: AC50): 39.8 µM (inconclusive) | AC50 [9]: 39.8 µM (inconclusive)

COc1ccc(N2CC(C(=O)OCC(=O)c3cccc(OC)c3)CC2=O)cc1 (stereo not drawn)
AC50 ([2]; read-out: AC50): 8.91 µM (inconclusive)

COc1cc(Cn2cnnn2)ccc1O
AC50 [4]: 39.8 µM (inconclusive) | AC50 [5]: 0.178 µM (inconclusive)

Oc1ccccc1/C=N/NC(=S)NC1CC2CCC1C2 (stereo not drawn)
EC50 [6]: 4.8 µM (active) | EC50 [7]: > 150 µM (not active) | EC50 [8]: 8.53 µM (active)

Cc1ccccc1N1CCN(C(=O)c2ccccc2NC(=O)/C=C\C(=O)O)CC1
AC50 ([2]; read-out: AC50): 28.2 µM (inconclusive)

CC(=O)C1C(c2ccccc2OC(F)F)NC(=O)NC1(O)C(F)(F)F (stereo not drawn)
AC50 [4]: 5.01 µM (inconclusive) | AC50 [5]: 15.8 µM (inconclusive)

COC(=O)CCCC1=CC2=C(c3ccccc3)C(=O)C(C)(OC(=O)C3CCCC3)C(=O)C2=CN1c1ccc(OC)cc1 (stereo not drawn)
EC50 [1]: > 195 µM (not active)

S=C(N/N=C/c1ccc(Br)cc1)N1CCCCC1
EC50 [10]: 0.174 µM (active) | EC50 [11]: 96.7 µM (active)

COc1ccc(N2CCN(C(=O)Cc3csc(NC(=O)Nc4ccccc4OC)n3)CC2)cc1
EC50 [6]: > 150 µM (not active) | EC50 [7]: > 150 µM (not active) | EC50 [8]: 32.7 µM (active)

CCN(CC)CCOC(=O)[C@@H](Cc1cccc2ccccc12)C[C@@H]1CCCO1 [NAFTIDROFURYL]
AC50 [9]: 5.01 µM (inconclusive) | AC50 [4]: 10 µM (inconclusive)

CCn1c(O)c(C(c2ccccn2)c2c(O)n(CC)c(=S)[nH]c2=O)c(=O)[nH]c1=S
AC50 ([2]; read-out: AC50): 0.00562 µM (inconclusive) | AC50 [5]: 31.6 µM (inconclusive)

O=C(NCCCN1CCC(Cc2ccccc2)CC1)C1CC(=O)N(C2CCCC2)C1 (stereo not drawn)
EC50 [1]: > 195 µM (not active)

COc1ccc(C(C)N=C(S)NC2CCCCC2)cc1OC (stereo not drawn)
EC50 [1]: > 195 µM (not active)

COc1cc(NC(=O)n2ncc3cc(Cl)ccc32)cc(OC)c1
EC50 [10]: 17.4 µM (active) | EC50 [11]: 12.5 µM (active)

COc1ccc(N2CCN(C(=O)c3cccc(Br)c3)CC2)c([N+](=O)[O-])c1
EC50 [1]: > 195 µM (not active)

COc1ccc(C/C(C)=N/NC(=S)Nc2ccccc2F)cc1
EC50 [1]: 96.9 µM (active)

CCCC(=O)Nc1c(C)n[nH]c1C
AC50 ([2]; read-out: AC50): 3.98 µM (inconclusive)

Cc1ccc(OCC(=O)NNC(=O)CCC(=O)Nc2ccc(C)cc2C)cc1
AC50 [2]: inconclusive

COc1ccccc1NC(=O)COC(=O)c1ccc(S(=O)(=O)NCc2ccco2)cc1
AC50 [9]: 11.2 µM (inconclusive) | AC50 [4]: 12.6 µM (inconclusive)

O=C(NC1CCCCC1)C(c1ccco1)N(C(=O)c1csnn1)c1ccc(Cl)cc1 (stereo not drawn)
EC50 [1]: > 195 µM (not active)

COC(=O)[C@H](C)NC(=O)NCCC1=CCCCC1
EC50 [1]: > 195 µM (not active)
